According to US6875727B2, “Use of macrolides in pest control” (Syngenta Crop Protection, Inc., priority 1998, dated 2005):

test system: Anthonomus grandis adults; assay: Spray action on transgenic cotton plants against Anthonomus grandis adults; assay type: in vivo; conditions: non-transgenic cotton, spray mixture with conventional CryIIIA-toxin, each 100, 50, 10, 5, 1 ppm (comparison to CryIIIA cotton)
Excerpt: (§1) Young transgenic cotton plants which express the δ-endotoxin CryIIIA are sprayed with an aqueous emulsion spray mixture comprising 100, 50, 10, 5, 1 ppm of emamectin-benzoate respectively. After the spray coating has dried on, the cotton plants are populated with 10 adult Anthonomus grandis, 10 Spodoptera littoralis larvae or 10 Heliothis virescens larvae respectively and introduced into a plastic container. Evaluation takes place 3 to 10 days later. The percentage reduction in population, or the percentage reduction in feeding damage (% action), is determined by comparing the number of dead beetles and the feeding damage on the transgenic cotton plants with that of non-transgenic cotton plants which have been treated with an emulsion spray mixture comprising emamectin-benzoate and conventional CryIIIA-toxin at a concentration of in each case 100, 50, 10, 5, 1 ppm respectively.
as §1, with “abamectin” for “emamectin-benzoate”
as §1, with “spinosad” for “emamectin-benzoate”
as §1, with “δ-endotoxin CryIa(c)” for “δ-endotoxin CryIIIA”, “of spinosad” for “of emamectin-benzoate”, “comprising spinosad” for “comprising emamectin-benzoate”
(§2) Young transgenic cotton plants which express the δ-endotoxin CryIa(c) are sprayed with an aqueous emulsion spray mixture comprising 100, 50, 10, 5, 1 ppm of abamectin respectively. After the spray coating has dried on, the cotton plants are populated with 10 adult Anthonomus grandis, 10 Spodoptera littoralis larvae or 10 Heliothis virescens larvae respectively and introduced into a plastic container. Evaluation takes place 3 to 10 days later. […]

| Substance | control of the tested insects (% action: reduction in population or feeding damage) |
| --- | --- |
| emamectin-benzoate | insufficient |
| abamectin | insufficient |
| spinosad | insufficient |

same assay, conditions: non-transgenic cotton, spray mixture with conventional CryIIIA-toxin, each 100, 50, 10, 5, 1 ppm (comparison to CryIa(c) cotton)

| Substance | control of the tested insects (% action: reduction in population or feeding damage) |
| --- | --- |
| emamectin-benzoate | insufficient |
| abamectin | insufficient |
| spinosad | insufficient |

same assay, conditions: transgenic cotton expressing δ-endotoxin CryIIIA; spray 100, 50, 10, 5, 1 ppm; evaluation 3 to 10 days

| Substance | control of the tested insects (% action: reduction in population or feeding damage) |
| --- | --- |
| emamectin-benzoate | superior |
| abamectin | superior |
| spinosad | superior |

same assay, conditions: transgenic cotton expressing δ-endotoxin CryIa(c); spray 100, 50, 10, 5, 1 ppm; evaluation 3 to 10 days

| Substance | control of the tested insects (% action: reduction in population or feeding damage) |
| --- | --- |
| emamectin-benzoate | superior |
| abamectin | superior |
| spinosad | superior |

test system: Ostrinia nubilalis; assay: Plot test, maize cv. KnockOut vs conventional maize, natural infestation with Ostrinia nubilalis; assay type: in vivo; conditions: plot (a) maize cv. KnockOut; spray 200, 100, 50, 10, 5, 1 ppm; evaluation 6 days later
Procedure: (§3) A plot (a) planted with maize cv. KnockOut® and an adjacent plot (b) of the same size which is planted with conventional maize, both showing natural infestation with Ostrinia nubilalis, Spodoptera spp. or Heliothis, are sprayed with an aqueous emulsion spray mixture comprising 200, 100, 50, 10, 5, 1 ppm of spinosad. Immediately afterwards, plot (b) is treated with an emulsion spray mixture comprising 200, 100, 50, 10, 5, 1 ppm of the endotoxin expressed by KnockOut®. Evaluation takes place 6 days later. The percentage reduction in population (% action) is determined by comparing the number of dead pests on the plants of plot (a) with that on the plants of plot (b).
as §3, with “sp” for “spp.”, “abamectin.” for “spinosad.”
as §3, with “sp” for “spp.”, “emamectin benzoate.” for “spinosad.”

| Substance | control of Ostrinia nubilalis on plot (a) |
| --- | --- |
| emamectin-benzoate | Improved control |
| abamectin | Improved control |
| spinosad | Improved control |

same assay, conditions: plot (b) conventional maize, also treated with 200, 100, 50, 10, 5, 1 ppm of the endotoxin expressed by KnockOut; 6 days

| Substance | control level on plot (b) [%] |
| --- | --- |
| emamectin-benzoate | ≤ 80 |
| abamectin | ≤ 80 |
| spinosad | ≤ 80 |

test system: Spodoptera spp.; assay: Plot test, maize cv. KnockOut vs conventional maize, natural infestation with Spodoptera spp.; assay type: in vivo; conditions: plot (a) maize cv. KnockOut; spray 200, 100, 50, 10, 5, 1 ppm; evaluation 6 days later
Procedure: as §3
as §3, with “sp” for “spp.”, “abamectin.” for “spinosad.”
as §3, with “sp” for “spp.”, “emamectin benzoate.” for “spinosad.”

| Substance | control of Spodoptera spp. on plot (a) |
| --- | --- |
| emamectin-benzoate | Improved control |
| abamectin | Improved control |
| spinosad | Improved control |

same assay, conditions: plot (b) conventional maize, also treated with 200, 100, 50, 10, 5, 1 ppm of the endotoxin expressed by KnockOut; 6 days

| Substance | control level on plot (b) [%] |
| --- | --- |
| emamectin-benzoate | ≤ 80 |
| abamectin | ≤ 80 |
| spinosad | ≤ 80 |

test system: Heliothis virescens larvae; assay: Spray action on transgenic cotton plants against Heliothis virescens larvae; assay type: in vivo; conditions: non-transgenic cotton, spray mixture with conventional CryIIIA-toxin, each 100, 50, 10, 5, 1 ppm (comparison to CryIIIA cotton)
Excerpt: as §1
as §1, with “abamectin” for “emamectin-benzoate”
as §1, with “spinosad” for “emamectin-benzoate”
as §1, with “δ-endotoxin CryIa(c)” for “δ-endotoxin CryIIIA”, “of spinosad” for “of emamectin-benzoate”, “comprising spinosad” for “comprising emamectin-benzoate”
as §2

| Substance | control of the tested insects (% action: reduction in population or feeding damage) |
| --- | --- |
| emamectin-benzoate | insufficient |
| abamectin | insufficient |
| spinosad | insufficient |

same assay, conditions: non-transgenic cotton, spray mixture with conventional CryIIIA-toxin, each 100, 50, 10, 5, 1 ppm (comparison to CryIa(c) cotton)

| Substance | control of the tested insects (% action: reduction in population or feeding damage) |
| --- | --- |
| emamectin-benzoate | insufficient |
| abamectin | insufficient |
| spinosad | insufficient |

same assay, conditions: transgenic cotton expressing δ-endotoxin CryIIIA; spray 100, 50, 10, 5, 1 ppm; evaluation 3 to 10 days

| Substance | control of the tested insects (% action: reduction in population or feeding damage) |
| --- | --- |
| emamectin-benzoate | superior |
| abamectin | superior |
| spinosad | superior |

same assay, conditions: transgenic cotton expressing δ-endotoxin CryIa(c); spray 100, 50, 10, 5, 1 ppm; evaluation 3 to 10 days

| Substance | control of the tested insects (% action: reduction in population or feeding damage) |
| --- | --- |
| emamectin-benzoate | superior |
| abamectin | superior |
| spinosad | superior |

test system: Heliothis spp.; assay: Plot test, maize cv. KnockOut vs conventional maize, natural infestation with Heliothis spp.; assay type: in vivo; conditions: plot (a) maize cv. KnockOut; spray 200, 100, 50, 10, 5, 1 ppm; evaluation 6 days later
Procedure: as §3
as §3, with “sp” for “spp.”, “abamectin.” for “spinosad.”
as §3, with “sp” for “spp.”, “emamectin benzoate.” for “spinosad.”

| Substance | control of Heliothis on plot (a) |
| --- | --- |
| emamectin-benzoate | Improved control |
| abamectin | Improved control |
| spinosad | Improved control |

same assay, conditions: plot (b) conventional maize, also treated with 200, 100, 50, 10, 5, 1 ppm of the endotoxin expressed by KnockOut; 6 days

| Substance | control level on plot (b) [%] |
| --- | --- |
| emamectin-benzoate | ≤ 80 |
| abamectin | ≤ 80 |
| spinosad | ≤ 80 |

test system: Spodoptera littoralis larvae; assay: Spray action on transgenic cotton plants against Spodoptera littoralis larvae; assay type: in vivo; conditions: non-transgenic cotton, spray mixture with conventional CryIIIA-toxin, each 100, 50, 10, 5, 1 ppm (comparison to CryIIIA cotton)
Excerpt: as §1
as §1, with “abamectin” for “emamectin-benzoate”
as §1, with “spinosad” for “emamectin-benzoate”
as §1, with “δ-endotoxin CryIa(c)” for “δ-endotoxin CryIIIA”, “of spinosad” for “of emamectin-benzoate”, “comprising spinosad” for “comprising emamectin-benzoate”
as §2

| Substance | control of the tested insects (% action: reduction in population or feeding damage) |
| --- | --- |
| emamectin-benzoate | insufficient |
| abamectin | insufficient |
| spinosad | insufficient |

same assay, conditions: non-transgenic cotton, spray mixture with conventional CryIIIA-toxin, each 100, 50, 10, 5, 1 ppm (comparison to CryIa(c) cotton)

| Substance | control of the tested insects (% action: reduction in population or feeding damage) |
| --- | --- |
| emamectin-benzoate | insufficient |
| abamectin | insufficient |
| spinosad | insufficient |

same assay, conditions: transgenic cotton expressing δ-endotoxin CryIIIA; spray 100, 50, 10, 5, 1 ppm; evaluation 3 to 10 days

| Substance | control of the tested insects (% action: reduction in population or feeding damage) |
| --- | --- |
| emamectin-benzoate | superior |
| abamectin | superior |
| spinosad | superior |

same assay, conditions: transgenic cotton expressing δ-endotoxin CryIa(c); spray 100, 50, 10, 5, 1 ppm; evaluation 3 to 10 days

| Substance | control of the tested insects (% action: reduction in population or feeding damage) |
| --- | --- |
| emamectin-benzoate | superior |
| abamectin | superior |
| spinosad | superior |
